Results on 48 compounds are retold here after patent publication US9624217B2, “Dihydropyrrolopyridine inhibitors of ROR-gamma” (Vitae Pharmaceuticals, Inc., priority 2014, dated 2017).

The target in test [1] is full-length RORγt (Homo sapiens (Human), UniProt P51449). The test is described as follows: RORγt 5×RORE Assay in Jurkat Cells (Assay 2). It is filed as cell-based. Conditions: secreted Nanoluc luciferase 5×RORE reporter, 16-18 hrs, read-out: RORγt5X IC50 Range. As to the method: [formula] RORγt 5×RORE Assay in Jurkat Cells (Assay 2)
Compounds of the present invention were tested for RORγ inverse agonist activity in a cell-based, transcriptional activity assay. […] (Promega, Cat. #N1021) using KpnI and HindIII restriction sites. […] Luciferase activity in the conditioned supernatants was determined with NanoGlo® assay reagents (Promega, Cat. #N1130).

Test [2] concerns the target recombinant RORγ Ligand Binding Domain (LBD) (Homo sapiens (Human), UniProt P51449). Kind of test: Radio-Ligand RORγ Binding Assay (Assay 1). Conditions: SPA competition with 25-hydroxy [26,27-3H]-cholesterol, cell-free; read-out: RORγ Binding Ki Range. As to the method:
Radio-Ligand RORγ Binding Assay (Assay 1)
Compounds of the present invention were tested for ability to bind to RORγ in a cell-free competition assay with commercially available radio-ligand (RL), 25-hydroxy [26,27-^3H]-cholesterol (PerkinElmer, Cat. #NET674250UC), for a ligand binding site on a recombinant RORγ Ligand Binding Domain (LBD) protein expressed as a 6×His-Glutathione-S-Transferase (GST) fusion. […] The plate was shaken at 700 rpm for 20 min and incubated for 10 min at rt, after which 40 μL of poly-Lys YSi SPA beads (PerkinElmer, Cat. #RPNQ0010) were added to achieve 50 μg of the beads per well. The plate was incubated on an orbital shaker for 20 min and then for 10 min without agitation at rt. SPA signal for tritium beta radiation was registered on PerkinElmer Microbeta plate reader. […] The percent inhibition vs. concentration data were fit into a four-parameter model, and IC50 values were calculated from the fit as the concentrations corresponding to the inflection points on the dose-response curves.

Sequence of full-length RORγt (P51449 other isoform, or with tags, fused parts or gaps): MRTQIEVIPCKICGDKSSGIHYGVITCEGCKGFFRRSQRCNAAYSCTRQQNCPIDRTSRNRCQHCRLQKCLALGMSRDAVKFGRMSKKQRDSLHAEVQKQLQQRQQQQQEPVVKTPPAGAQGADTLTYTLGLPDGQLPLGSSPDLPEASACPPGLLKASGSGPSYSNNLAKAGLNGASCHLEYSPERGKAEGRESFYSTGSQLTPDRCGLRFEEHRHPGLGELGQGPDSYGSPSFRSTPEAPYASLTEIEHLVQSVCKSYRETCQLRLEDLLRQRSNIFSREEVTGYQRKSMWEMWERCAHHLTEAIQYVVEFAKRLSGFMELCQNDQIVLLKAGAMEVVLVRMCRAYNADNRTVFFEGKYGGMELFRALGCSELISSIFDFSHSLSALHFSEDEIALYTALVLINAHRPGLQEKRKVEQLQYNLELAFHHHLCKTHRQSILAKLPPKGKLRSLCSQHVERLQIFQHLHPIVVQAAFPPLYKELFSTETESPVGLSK
Sequence of recombinant RORγ Ligand Binding Domain (LBD) (P51449 269-508): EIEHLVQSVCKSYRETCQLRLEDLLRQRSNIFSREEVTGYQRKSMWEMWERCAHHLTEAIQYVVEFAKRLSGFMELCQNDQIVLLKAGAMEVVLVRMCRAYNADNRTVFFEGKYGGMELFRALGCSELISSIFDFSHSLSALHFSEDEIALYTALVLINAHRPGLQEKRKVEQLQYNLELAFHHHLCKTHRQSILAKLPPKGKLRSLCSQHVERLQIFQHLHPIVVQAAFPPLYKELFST

Regarding `CCS(=O)(=O)c1ccc(CNC(=O)c2cnc3c(c2)CN(Cc2ccc(Cl)cc2)[C@H]3C(C)C)cc1` [Compound 3], the IC50 in test [1] is under 100 nM. The inhibition constant (Ki) in test [2] was under 100 nM.

Regarding `CCS(=O)(=O)c1ccc(CNC(=O)c2cnc3c(c2)CN(Cc2ccc(C#N)cc2)[C@H]3C(C)C)cc1` [Compound 4], the 50% inhibitory concentration (IC50) in test [1] is under 100 nM. Besides, the Ki in test [2] is under 100 nM.

In the case of `CCS(=O)(=O)c1ccc(CNC(=O)c2cnc3c(c2)CN(Cc2ccc(OC(F)F)cc2)[C@H]3C(C)C)cc1` [Compound 5], the 50% inhibitory concentration (IC50) in test [1] was under 100 nM. Also, the Ki in test [2] is under 100 nM.

Take `CCS(=O)(=O)c1ccc(CNC(=O)c2cnc3c(c2)CN(Cc2ccc(F)cc2)[C@H]3C(C)C)cc1` [Compound 7]: the half-maximal inhibitory concentration (IC50) in test [1] fell in the range of 100 to 1000 nM. Moreover, in test [2], the Ki is under 100 nM.

Regarding `CCS(=O)(=O)c1ccc(CNC(=O)c2cnc3c(c2)CN(c2ncc(C(F)(F)F)cn2)[C@H]3C(C)C)cc1` [Compound 8], the IC50 in test [1] was over 1000 nM. For the same compound, in test [2], the Ki was under 100 nM.

For `CCOC(=O)c1cnc(N2Cc3cc(C(=O)NCc4ccc(S(=O)(=O)CC)cc4)cnc3[C@@H]2C(C)C)nc1C(F)(F)F` [Compound 10], the IC50 in test [1] is over 1000 nM. Moreover, the Ki in test [2] was under 100 nM.

With `CCS(=O)(=O)c1ccc(CNC(=O)c2cnc3c(c2)C(=O)N(Cc2ccc(Cl)cc2)C3(O)C(C)C)cc1` (centres unmarked) [Compound 11], the IC50 in test [1] was over 1000 nM. The Ki in test [2] lay within 100 to 1000 nM.

Consider `CCS(=O)(=O)c1ccc(CNC(=O)c2cnc3c(c2)CN(C(=O)OC(C)(C)C)[C@H]3C(C)C)cc1` [Compound 15, tert-butyl (S)-3-((4-(ethylsulfonyl)benzyl)carbamoyl)-7-isopropyl-5,7-dihydro-6H-pyrrolo[3,4-b]pyridine-6-carboxylate], for which the IC50 in test [1] was over 1000 nM.

Regarding `CC(C)[C@H]1c2ncc(C(=O)NCc3ccc(S(C)(=O)=O)cc3)cc2CN1Cc1ccc(Cl)cc1` [Compound 17], the concentration for half-maximal inhibition (IC50) in test [1] was under 100 nM. Moreover, in test [2], the inhibitory constant (Ki) is under 100 nM.

In the case of `CC(C)[C@H]1c2ncc(C(=O)NCc3ccc(S(C)(=O)=O)cc3)cc2CN1Cc1ccc(C#N)cc1` [Compound 21], the half-inhibitory concentration (IC50) in test [1] fell in the range of 100 to 1000 nM. In test [2], the Ki was in the range of 100 to 1000 nM.

For `CC(C)[C@H]1c2ncc(C(=O)NCc3ccc(S(C)(=O)=O)cc3)cc2CN1Cc1ccc(C(F)(F)F)cc1` [Compound 22], the IC50 in test [1] was under 100 nM. In addition, in test [2], the Ki was under 100 nM.

For the compound `CC(C)[C@H]1c2ncc(C(=O)NCc3ccc(S(C)(=O)=O)cc3)cc2CN1Cc1ccc(F)cc1` [Compound 24], the 50% inhibitory concentration (IC50) in test [1] is over 1000 nM. In test [2], the Ki was under 100 nM.

On to `CCS(=O)(=O)c1ccc(CNC(=O)c2cnc3c(c2)CN(C(=O)OCc2ccc(Cl)cc2)[C@H]3C(C)C)cc1` [Compound 25], for which the IC50 in test [1] is over 1000 nM. Further, the Ki in test [2] is under 100 nM.

As for `CCS(=O)(=O)c1ccc(CNC(=O)c2cnc3c(c2)[C@@H](C)N(Cc2ccc(Cl)cc2)[C@H]3C(C)C)cc1` [Compound 28], the half-inhibitory concentration (IC50) in test [1] was under 100 nM. Moreover, in test [2], the Ki is under 100 nM.

As to `CCS(=O)(=O)c1ccc(CNC(=O)c2cnc3c(c2)[C@H](C)N(Cc2ccc(Cl)cc2)[C@H]3C(C)C)cc1` [Compound 29], the half-maximal inhibitory concentration (IC50) in test [1] was under 100 nM. For the same compound, the Ki in test [2] is under 100 nM.

For `CCS(=O)(=O)c1ccc(CNC(=O)c2cnc3c(c2)[C@@H](C)N(Cc2ccc(C(F)(F)F)cc2)[C@H]3C(C)C)cc1` [Compound 30], in test [1], the IC50 is under 100 nM. Moreover, in test [2], the Ki was under 100 nM.

Regarding `CCS(=O)(=O)c1ccc(CNC(=O)c2cnc3c(c2)[C@H](C)N(Cc2ccc(C(F)(F)F)cc2)[C@H]3C(C)C)cc1` [Compound 31], in test [1], the IC50 was under 100 nM. Besides, in test [2], the Ki is under 100 nM.

Turning to `CCS(=O)(=O)c1ccc(CNC(=O)c2cnc3c(c2)CN(Cc2ccc(C(F)(F)F)cc2)[C@H]3C(C)C)nc1` [Compound 33], in test [1], the IC50 was under 100 nM. For the same compound, in test [2], the Ki is under 100 nM.

Turning to `CCS(=O)(=O)c1ccc(CNC(=O)c2cnc3c(c2)CN(Cc2ccc(Cl)cc2)[C@H]3C(C)C)nc1` [Compound 34], the concentration for half-maximal inhibition (IC50) in test [1] was under 100 nM. Further, the Ki in test [2] was under 100 nM.

As for `CCS(=O)(=O)c1ccc(CNC(=O)c2cnc3c(c2)CN(Cc2ccc(C#N)cc2)[C@H]3C(C)C)nc1` [Compound 35], the IC50 in test [1] is 100 to 1000 nM. Also, the Ki in test [2] is under 100 nM.

On to `CCS(=O)(=O)c1ccc(CNC(=O)c2cnc3c(c2)CN(CC2CCC(F)(F)CC2)[C@H]3C(C)C)cc1` [Compound 42], for which the IC50 in test [1] was over 1000 nM. In test [2], the inhibition constant (Ki) was under 100 nM.

Take `CCS(=O)(=O)c1ccc(CC(=O)Nc2cnc3c(c2)CN(Cc2ccc(Cl)cc2)[C@H]3C(C)C)cc1` [Compound 56]: in test [1], the IC50 lay in the range of 100 to 1000 nM.

Take `CC(C)[C@H]1c2ncc(C(=O)NCC(F)F)cc2CN1Cc1ccc(C(F)(F)F)cc1` [Compound 124]: in test [2], the Ki is over 1000 nM.

For the compound `CC(C)[C@H]1c2ncc(C(=O)N[C@H]3c4ccccc4C[C@H]3O)cc2CN1Cc1ccc(C(F)(F)F)cc1` [Compound 125], the inhibition constant (Ki) in test [2] was over 1000 nM.

`COC(=O)C(Cc1ccc(F)cc1)NC(=O)c1cnc2c(c1)CN(Cc1ccc(C(F)(F)F)cc1)[C@H]2C(C)C` (some centres unmarked) [Compound 126]: the Ki in test [2] is over 1000 nM.

On to `CC(C)[C@H]1c2ncc(C(=O)NC[C@H]3CC[C@H](C#N)CC3)cc2CN1Cc1ccc(C(F)(F)F)cc1` [Compound 129], for which the Ki in test [2] is 100 to 1000 nM.

`CC(C)[C@H]1c2ncc(C(=O)N[C@H]3c4ccccc4C[C@H]3O)cc2CN1Cc1ccc(C(F)(F)F)cc1` [Compound 130]: the inhibitory constant (Ki) in test [2] is over 1000 nM.

With `CC(C)[C@H]1c2ncc(C(=O)N[C@H]3c4ccccc4C[C@H]3O)cc2CN1Cc1ccc(C(F)(F)F)cc1` [Compound 131], in test [2], the Ki lay within 100 to 1000 nM.

`CC(C)[C@H]1c2ncc(C(=O)N[C@H]3c4ccccc4C[C@H]3O)cc2CN1Cc1ccc(C(F)(F)F)cc1` [Compound 132]: in test [2], the Ki lay in the range of 100 to 1000 nM.

As to `COC(=O)C1(CNC(=O)c2cnc3c(c2)CN(Cc2ccc(C(F)(F)F)cc2)[C@H]3C(C)C)CCOCC1` [Compound 134], the Ki in test [2] was over 1000 nM.

Consider `COC(=O)C(Cc1cc(=O)[nH]c2ccccc12)NC(=O)c1cnc2c(c1)CN(Cc1ccc(C(F)(F)F)cc1)[C@H]2C(C)C` (some centres unmarked) [Compound 135], for which the Ki in test [2] was over 1000 nM.

With `CC(C)[C@H]1c2ncc(C(=O)NC(Cc3cc(=O)[nH]c4ccccc34)C(=O)O)cc2CN1Cc1ccc(C(F)(F)F)cc1` (some centres unmarked) [Compound 136], the Ki in test [2] is over 1000 nM.

`COC(=O)CC1(CNC(=O)c2cnc3c(c2)CN(Cc2ccc(C(F)(F)F)cc2)[C@H]3C(C)C)CCCCC1` [Compound 137]: the Ki in test [2] was over 1000 nM.

Regarding `CC(C)[C@H]1c2ncc(C(=O)NC(Cc3ccc(F)cc3)C(=O)O)cc2CN1Cc1ccc(C(F)(F)F)cc1` (some centres unmarked) [Compound 138], the Ki in test [2] is over 1000 nM.

In the case of `CC(C)[C@H]1c2ncc(C(=O)NC(CC(=O)O)c3ccc(Br)cc3)cc2CN1Cc1ccc(C(F)(F)F)cc1` (some centres unmarked) [Compound 140], in test [2], the Ki is over 1000 nM.

For the compound `CC(C)[C@H]1c2ncc(C(=O)NCC3(CC(=O)O)CCCCC3)cc2CN1Cc1ccc(C(F)(F)F)cc1` [Compound 145], in test [2], the inhibition constant (Ki) was over 1000 nM.

As for `CC(C)[C@H]1c2ncc(C(=O)NCC3(C(=O)O)CCOCC3)cc2CN1Cc1ccc(C(F)(F)F)cc1` [Compound 146], the Ki in test [2] is over 1000 nM.

For the compound `CC(C)[C@H]1c2ncc(C(=O)NCc3ccc(C(=O)O)cc3)cc2CN1Cc1ccc(C(F)(F)F)cc1` [Compound 147, (S)-4-((7-isopropyl-6-(4-(trifluoromethyl)benzyl)-6,7-dihydro-5H-pyrrolo[3,4-b]pyridine-3-carboxamido)methyl)benzoic acid], the Ki in test [2] is 100 to 1000 nM.

For the compound `CC(C)[C@H]1c2ncc(C(=O)NC[C@H]3CC[C@H](C(=O)O)CC3)cc2CN1Cc1ccc(C(F)(F)F)cc1` [Compound 148], the Ki in test [2] was over 1000 nM.

As for `COC(=O)c1ccc(CNC(=O)c2cnc3c(c2)CN(Cc2ccc(C(F)(F)F)cc2)[C@H]3C(C)C)nc1` [Compound 150], the inhibitory constant (Ki) in test [2] was over 1000 nM.

For `CC(C)[C@H]1c2ncc(C(=O)NCc3ccc(C(=O)O)cn3)cc2CN1Cc1ccc(C(F)(F)F)cc1` [Compound 151], in test [2], the Ki lay in the range of 100 to 1000 nM.

With `CC(C)[C@H]1c2ncc(C(=O)NCCC3CN(S(C)(=O)=O)C3)cc2CN1Cc1ccc(C(F)(F)F)cc1` [Compound 152], the Ki in test [2] was over 1000 nM.

Regarding `CC(C)[C@H]1c2ncc(C(=O)NCC3CN(S(C)(=O)=O)C3)cc2CN1Cc1ccc(C(F)(F)F)cc1` [Compound 153], the inhibition constant (Ki) in test [2] is over 1000 nM.

For `CC(C)[C@H]1c2ncc(C(=O)NCC3CCN(S(C)(=O)=O)C3)cc2CN1Cc1ccc(C(F)(F)F)cc1` (some centres unmarked) [Compound 154], the Ki in test [2] was over 1000 nM.

In the case of `CC(C)[C@H]1c2ncc(C(=O)NC[C@@H]3CCN(C(=O)OC(C)(C)C)C[C@H]3O)cc2CN1Cc1ccc(C(F)(F)F)cc1` [Compound 156], in test [2], the inhibition constant (Ki) is over 1000 nM.

Turning to `CC(=O)O[C@@H]1CN(C(C)=O)CC[C@H]1CNC(=O)c1cnc2c(c1)CN(Cc1ccc(C(F)(F)F)cc1)[C@H]2C(C)C` [Compound 157], the inhibition constant Ki in test [2] is over 1000 nM.

With `CC(C)[C@H]1c2ncc(C(=O)N[C@H](CO)c3ccc(C#N)cc3)cc2CN1Cc1ccc(C(F)(F)F)cc1` [Compound 158], the inhibition constant (Ki) in test [2] fell in the range of 100 to 1000 nM.

With `CCS(=O)(=O)c1ccc(CNC(=O)c2cnc3c(c2)CN(Cc2ccc(C(F)(F)F)cc2)[C@H]3C(C)C)nn1` [Compound 159], in test [2], the inhibition constant Ki is under 100 nM.
